From patent US4764508A, “Complexes of flavanolignans with phospholipids, preparation thereof and associated pharmaceutical compositions” (Inverni Della Beffa S.p.A., priority 1985, dated 1988)

Legend:
[1] = in vivo, po
Excerpt: phosphatidylcholine complex in the rat, after oral administration.

[2] = system: liver poisoning with carbon tetrachloride; test: Anti-hepatotoxic activity of silybin and of 1:1 silybin-phosphatidylcholine complex in the rat, after poisoning with carbon tetrachloride; assay type: in vivo; conditions: oral; for reduction in GOT and GPT (in words): carbon tetrachloride, equimolecular doses; for GOT: poisoned controls 339.40 ± 59.07; for GOT, % change (in brackets) / GPT, % change (in brackets): versus poisoned controls
[3] = Solubility in chloroform, ethyl ether or benzene
[4] = Pharmacokinetic comparison between equimolar doses of silybin and of 1:1 silybin:phosphatidylcholine complex in man, oral administration; conditions: 0.00 = below sensitivity of the method (35 ng/ml)
[5] = Pharmacokinetic comparison between equimolar doses of silybin and of 1:1 silybin-phosphatidylcholine complex in the rat, after oral administration
[6] = conclusion from literature reports; cited from earlier work
[7] = silybin 25 mg/kg, complex 65.8 mg/kg (equivalent to 25 mg silybin), poisoned controls 145.40 ± 31.43
[8] = silybin 25 mg/kg, complex 65.8 mg/kg (equivalent to 25 mg silybin)
[9] = silybin 25 mg/kg, complex 65.8 mg/kg
[10] = silybin 250 mg/kg (P < .05), complex 658 mg/kg (equivalent to 250 mg silybin; P < .01)
[11] = silybin 250 mg/kg, complex 658 mg/kg (equivalent to 250 mg silybin), poisoned controls 145.40 ± 31.43, °° P < .01
[12] = silybin 250 mg/kg, complex 658 mg/kg

1:1 Silybin/soy phosphatidylcholine complex [1:1 silybin-phosphatidylcholine complex]
absorption in the rat (in words) [1]: markedly in favour of the complexed form
reduction in GOT and GPT (in words) [2]: significant reduction
GPT [2, 7]: 65.90 U/L
GOT [2, 8]: 181.80 U/L
GOT, % change (in brackets) [2, 9]: -46.4%
GPT, % change (in brackets) [2, 9]: -54.7%
GOT [2, 10]: 148.10 U/L
GPT [2, 11]: 46.90 U/L
GOT, % change (in brackets) [2, 12]: -56.4%
GPT, % change (in brackets) [2, 12]: -67.8%

COc1cc(C2Oc3cc([C@H]4Oc5cc(O)cc(O)c5C(=O)[C@@H]4O)ccc3OC2CO)ccc1O (stereo partly drawn) [Silybin, silybin]
solubility in chloroform, ethyl ether or benzene [3]: insoluble
concentration at sampling time 0.25 h ([4]; complex 700, silybin 270, 0.25 h): 0.00 ng/mL
concentration at sampling time 0.50 h ([4]; complex 700, silybin 270, 0.50 h): 0.00 ng/mL
concentration at sampling time 1.00 h ([4]; complex 700, silybin 270, 1.00 h): 0.00 ng/mL
concentration at sampling time 2.00 h ([4]; complex 700, silybin 270, 2.00 h): 0.00 ng/mL
concentration at sampling time 3.00 h ([4]; complex 700, silybin 270, 3.00 h): 0.00 ng/mL
concentration at sampling time 4.00 h ([4]; complex 700, silybin 270, 4.00 h): 0.00 ng/mL
concentration at sampling time 6.00 h ([4]; complex 700, silybin 270, 6.00 h): 0.00 ng/mL
concentration at sampling time 8.00 h ([4]; complex 700, silybin 270, 8.00 h): 0.00 ng/mL
concentration at 0.25 h ([5]; in vivo, po, 200 mg/kg): 70 ng/mL
concentration at 0.5 h ([5]; in vivo, po, 200 mg/kg): 60 ng/mL
concentration at 1 h ([5]; in vivo, po, 200 mg/kg): 110 ng/mL
concentration at 2 h ([5]; in vivo, po, 200 mg/kg): 50 ng/mL
concentration at 3 h ([5]; in vivo, po, 200 mg/kg): 50 ng/mL
concentration at sampling time 4.00 h ([5]; oral, complex 520 mg/kg (equivalent to 200 mg/kg silybin), silybin 200 mg/kg, 4.00 h, 0.00 = nondeterminable, below limit of 0.05 mcg/ml): 0 ng/mL
concentration at sampling time 6.00 h ([5]; oral, complex 520 mg/kg (equivalent to 200 mg/kg silybin), silybin 200 mg/kg, 6.00 h, 0.00 = nondeterminable, below limit of 0.05 mcg/ml): 0 ng/mL
oral bioavailability (in words) [6]: does not have really high or adequate bioavailability
reduction in GOT and GPT (in words) [2]: only a slight reduction
GPT [2, 7]: 94.30 U/L
GOT [2, 8]: 252.60 U/L
GOT, % change (in brackets) [2, 9]: -25.6%
GPT, % change (in brackets) [2, 9]: -35.2%
GOT [2, 10]: 200.00 U/L
GPT [2, 11]: 94.90 U/L
GOT, % change (in brackets) [2, 12]: -41.1%
GPT, % change (in brackets) [2, 12]: -34.8%
